Toxic doses and inconclusive results are not listed.

This test has as its system L1210 leukemia ip in BDF1 mice, survival T/C. Nature of the test: NCI In Vivo Anticancer Drug Screen. Data for tumor model L1210 Leukemia (intraperitoneal) in B6D2F1 (BDF1) mice. The following applies: endpoint: mean survival time, higher = longer survival. An outline of the steps: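 Each compound was tested against a transplantable tumor grown in mice. The endpoint was survival, with treated animals benchmarked against vehicle controls as a simple ratio.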

The mark [1] stands for this setting: dose: 100.0 mg/kg/injection, schedule: Q01DX001 (ip), vehicle: Klucel (hydroxypropylcellulose) (HPC).
The mark [2] stands for this setting: dose: 200.0 mg/kg/injection, schedule: Q01DX001 (ip), vehicle: Klucel (hydroxypropylcellulose) (HPC).
Where [3] appears, read: dose: 400.0 mg/kg/injection, schedule: Q01DX001 (ip), vehicle: Klucel (hydroxypropylcellulose) (HPC).
The mark [4] stands for this setting: dose: 50.0 mg/kg/injection, schedule: Q01DX009 (ip), vehicle: Klucel (hydroxypropylcellulose) (HPC).
The mark [5] stands for this setting: dose: 100.0 mg/kg/injection, schedule: Q01DX009 (ip), vehicle: Klucel (hydroxypropylcellulose) (HPC).
Where [6] appears, read: dose: 100.0 mg/kg/injection, schedule: Q01DX001 (ip), vehicle: saline.
Where [7] appears, read: dose: 200.0 mg/kg/injection, schedule: Q01DX001 (ip), vehicle: saline.
The mark [8] stands for this setting: dose: 400.0 mg/kg/injection, schedule: Q01DX001 (ip), vehicle: saline.
[9] abbreviates: dose: 50.0 mg/kg/injection, schedule: Q01DX001 (ip), vehicle: saline.
[10] abbreviates: dose: 200.0 mg/kg/injection, schedule: Q01DX009 (ip), vehicle: Klucel (hydroxypropylcellulose) (HPC).
The mark [11] stands for this setting: dose: 100.0 mg/kg/injection, schedule: Q01DX009 (ip), vehicle: saline with Tween-80.
Setting [12] is: dose: 200.0 mg/kg/injection, schedule: Q01DX009 (ip), vehicle: saline with Tween-80.
[13] abbreviates: dose: 400.0 mg/kg/injection, schedule: Q01DX009 (ip), vehicle: saline with Tween-80.

With `CC(=O)c1ccc(N)cc1`, the T/C is 94 % of control (dose: 100.0 mg/kg/injection, schedule: Q01DX009 (ip), vehicle: other); 100 % of control (dose: 100.0 mg/kg/injection, schedule: Q04DX002 (ip), vehicle: other); 102 % of control (dose: 200.0 mg/kg/injection, schedule: Q01DX009 (ip), vehicle: other); 117 % of control (dose: 200.0 mg/kg/injection, schedule: Q04DX002 (ip), vehicle: other); 114 % of control (dose: 400.0 mg/kg/injection, schedule: Q04DX002 (ip), vehicle: other).

`CC(/C=C/c1ccc2c(c1)OCO2)[N+](=O)[O-]` (stereo not given): the T/C by setting is: under setting [1], 103 % of control; under setting [2], 103 % of control; under setting [3], 106 % of control.

For `Cc1ccc(NC(=O)c2ccc([N+](=O)[O-])cc2)cc1Cl`, the T/C runs as follows: (dose: 25.0 mg/kg/injection, schedule: Q01DX009 (ip), vehicle: Klucel (hydroxypropylcellulose) (HPC)) 95 % of control; under setting [4], 103 % of control; under setting [1], 95 % of control; under setting [5], 103 % of control; (dose: 100.0 mg/kg/injection, schedule: Q04DX003 (ip), vehicle: Klucel (hydroxypropylcellulose) (HPC)) 93 % of control; under setting [2], 106 % of control. Moreover, the T/C runs as follows: (dose: 200.0 mg/kg/injection, schedule: Q04DX003 (ip), vehicle: Klucel (hydroxypropylcellulose) (HPC)) 95 % of control; under setting [3], 98 % of control; (dose: 400.0 mg/kg/injection, schedule: Q04DX003 (ip), vehicle: Klucel (hydroxypropylcellulose) (HPC)) 98 % of control.

Turning to `O=c1[nH][nH]c(=O)c2c([N+](=O)[O-])cccc12`, the T/C is 90 % of control (dose: 100.0 mg/kg/injection, schedule: Q01DX001 (ip), vehicle: other); 92 % of control (dose: 200.0 mg/kg/injection, schedule: Q01DX001 (ip), vehicle: other); 87 % of control (dose: 400.0 mg/kg/injection, schedule: Q01DX001 (ip), vehicle: other).

On to `O=c1[nH]c(/C=C/c2ccccc2)c(S(=O)(=O)N2CCCCC2)c(=O)[nH]1`, for which the T/C is, setting by setting: under setting [1], 93 % of control; under setting [2], 87 % of control; under setting [3], 93 % of control.

On to `C[C@]12CCC(=O)C=C1CC[C@@H]1[C@@H]2[C@@H](O)C[C@@]2(C)[C@H]1CC[C@]2(C)O`, for which the T/C was 91 % of control (dose: 50.0 mg/kg/injection, schedule: Q01DX009 (ip), vehicle: saline); 97 % of control (dose: 100.0 mg/kg/injection, schedule: Q01DX009 (ip), vehicle: saline); 102 % of control (dose: 200.0 mg/kg/injection, schedule: Q01DX009 (ip), vehicle: saline).

Consider `Cc1cccc(NC(=O)N(O)C2(C#N)CCCCC2)c1`, for which the T/C was 93 % of control under setting [6], 96 % of control under setting [7] and 98 % of control under setting [8].

As to `CC(C)(C#N)CCCCCC(C)(C)C#N`, the T/C was 100 % of control under setting [9], 96 % of control under setting [6], 100 % of control under setting [7] and 97 % of control under setting [8].

For `C[N+](C)(C)CCC[N+]1(C)CC2CC=CCC2C1` (stereo not given), the T/C is 97 % of control (dose: 100.0 mg/kg/injection, schedule: Q01DX Z (ip), vehicle: saline); 97 % of control (dose: 145.0 mg/kg/injection, schedule: Q01DX Z (ip), vehicle: saline); 87 % of control (dose: 220.0 mg/kg/injection, schedule: Q01DX Z (ip), vehicle: saline).

Regarding `O=C(CCCC(=O)N/N=C/C=C/c1ccccc1)N/N=C/C=C\c1ccccc1`, the T/C was 87 % of control under setting [9], 110 % of control under setting [6], 93 % of control under setting [7] and 97 % of control under setting [8].

For the compound `CNC(=O)n1cnc(N)n1` (tested in a mixture with another compound), the T/C reads like this: under setting [5], 96 % of control; under setting [10], 103 % of control.

In the case of `O=[N+]([O-])c1ccc(/C=N\Nc2ccccn2)s1`, the T/C reads like this: (dose: 100.0 mg/kg/injection, schedule: Q04DX003 (ip), vehicle: saline with Tween-80) 93 % of control; (dose: 200.0 mg/kg/injection, schedule: Q04DX003 (ip), vehicle: saline with Tween-80) 93 % of control.

For the compound `O=[N+]([O-])c1ccc(-c2cnc(Br)c3ccccc23)cc1`, the T/C reads like this: (dose: 25.0 mg/kg/injection, schedule: Q04DX003 (ip), vehicle: DMSO) 96 % of control; (dose: 50.0 mg/kg/injection, schedule: Q04DX003 (ip), vehicle: DMSO) 93 % of control; (dose: 100.0 mg/kg/injection, schedule: Q04DX003 (ip), vehicle: DMSO) 93 % of control; (dose: 200.0 mg/kg/injection, schedule: Q04DX003 (ip), vehicle: DMSO) 93 % of control; (dose: 400.0 mg/kg/injection, schedule: Q04DX003 (ip), vehicle: DMSO) 93 % of control.

`O=C(O)C1CCC=CC1c1ccccc1` (stereo not given): the T/C runs as follows: (dose: 100.0 mg/kg/injection, schedule: Q01DX005 (ip), vehicle: saline with Tween-80) 101 % of control; under setting [11], 96 % of control; (dose: 200.0 mg/kg/injection, schedule: Q01DX005 (ip), vehicle: saline with Tween-80) 101 % of control; under setting [12], 110 % of control; (dose: 400.0 mg/kg/injection, schedule: Q01DX005 (ip), vehicle: saline with Tween-80) 116 % of control; under setting [13], 110 % of control.

As to `Cc1c(Cl)c(=O)[nH]c2ccccc12`, the T/C runs as follows: under setting [4], 101 % of control; under setting [5], 97 % of control; under setting [10], 106 % of control.

As for `CC1CCCCN1C(=O)Nc1cccc(F)c1` (stereo not given), the T/C under setting [5] was 104 % of control; the T/C under setting [10] is 102 % of control; the T/C (dose: 400.0 mg/kg/injection, schedule: Q01DX009 (ip), vehicle: Klucel (hydroxypropylcellulose) (HPC)) was 111 % of control.

Consider `O=C(Nc1ccccc1Cl)c1cccnc1`, for which the T/C reads like this: (dose: 100.0 mg/kg/injection, schedule: Q04DX003 (ip), vehicle: other) 96 % of control; (dose: 200.0 mg/kg/injection, schedule: Q04DX003 (ip), vehicle: other) 97 % of control; (dose: 400.0 mg/kg/injection, schedule: Q04DX003 (ip), vehicle: other) 94 % of control.

As to `Cc1ccccc1S(=O)(=O)/C(=C(/I)c1ccccc1)c1ccccc1`, the T/C by setting is: under setting [6], 90 % of control; under setting [7], 92 % of control; under setting [8], 95 % of control.

For `O=C1C=CC(=O)C(SCCSC2=CC(=O)C(SCCSC3=CC(=O)C=CC3=O)=CC2=O)=C1`, the T/C is 98 % of control under setting [6], 101 % of control under setting [7] and 95 % of control under setting [8].

For `N#CC(CC(=O)c1ccc(Cl)cc1)c1ccccc1` (stereo not given), the T/C under setting [11] is 91 % of control, the T/C under setting [12] was 96 % of control and the T/C under setting [13] was 91 % of control.

Consider `CC(C)=CC(=O)O`, for which the T/C was 95 % of control under setting [11], 98 % of control under setting [12] and 104 % of control under setting [13].

With `CC(=O)[O][Hg][c]1ccc(Cl)cc1`, the T/C (dose: 5.0 mg/kg/injection, schedule: Q01DX001 (ip), vehicle: saline) is 89 % of control; the T/C (dose: 10.0 mg/kg/injection, schedule: Q01DX001 (ip), vehicle: saline) is 94 % of control; the T/C (dose: 20.0 mg/kg/injection, schedule: Q01DX001 (ip), vehicle: saline) was 96 % of control; the T/C (dose: 40.0 mg/kg/injection, schedule: Q01DX001 (ip), vehicle: saline) is 89 % of control; the T/C (dose: 80.0 mg/kg/injection, schedule: Q01DX001 (ip), vehicle: saline) was 91 % of control.

Take `CC(=O)OCC1OC(n2cnc3c(=S)nc[nH]c32)C(OC(C)=O)C1OC(C)=O` (stereo not given): the T/C (dose: 6.5 mg/kg/injection, schedule: Q01DX Z (ip), vehicle: carboxymethylcellulose (CMC)) is 122 % of control; the T/C (dose: 13.0 mg/kg/injection, schedule: Q01DX Z (ip), vehicle: carboxymethylcellulose (CMC)) was 113 % of control; the T/C (dose: 40.0 mg/kg/injection, schedule: Q01DX Z (ip), vehicle: carboxymethylcellulose (CMC)) was 151 % of control; the T/C (dose: 180.0 mg/kg/injection, schedule: Q01DX Z (ip), vehicle: carboxymethylcellulose (CMC)) was 107 % of control.

For the origin of these results see PubChem BioAssay AID248 (DTP/NCI, 2004).
